Measurements taken from patent US4298739A, “Novel carbostyril derivatives” (priority 1977, dated 1981).

Tests used:
[1] = Concentration in blood of male Wister rats; assay type: in vivo; details: 30 mg/kg water suspension; for Concentration in blood: Rat
Description: (§1) A water suspension of test compound was administered at the dose of 30 mg/kg to the overnight fasted male Wister rats and male beagle dogs, and after a predetermined period of time, blood was collected from said animals to obtain plasma. 2 to 3 Milliliters of 0.1 N-NaOH and 2 ml of CHCl3 were added to 1 ml of the obtained plasma, and the mixture was shaken and extracted in a shaker for 2 hours, and after centrifugal separation, the organic layer was washed with 2 ml of 0.1 N-HCl. This organic layer was then subjected to a freezing and thawing treatment, and after evaporating chloroform under nitrogen stream, the residue was redissolved in 100 μl of chloroform and spotted on a thin layer plate of "Silica Gel 60 F254 " manufactured by Merck & Co., Inc. This was developed in a chloroform: butanol mixed solvent (5:1) and determined by measuring the spots with same Rf value as the test compound according to the absorbance method by using Shimazu CS-910 Thin Layer Chromato-scanner,and therefrom the concentration (μg/ml) of test compound A in blood was determined.

rabbit platelet [2] = test: ADP-induced aggregation in rabbit platelets (AG-II Aggregometer); assay type: cell-based; details: Oryctolagus cuniculus, Platelet, read-out: Inhibition effect on ADP-induced aggregation in rabbit platelet; for inhibition at 100 µM (stock): 10^-4 mole; for inhibition at 10 µM (stock): 10^-5 mole; for inhibition at 1 µM (stock): 10^-6 mole
Description: (§2) The platelet aggregation inhibitory effect is measured by using AG-II Aggregometer (manufactured by Bryston Manufacturing Co.). The blood sample used for the test is a 1/9 (by volume) mixture of sodium citrate and whole blood collected from rabbit. Said sample is subjected to 10-minute centrifugal separation at 1,000 r.p.m. to obtain a platelet rich plasma (PRP). The thus obtained PRP is separated, and the remaining blood sample is further subjected to 15-minute centrifugal separation at 3,000 r.p.m. to obtain a platelet poor plasma (PPP).
(§3) The number of platelets in the PRP is counted by the Brecher-Clonkite Method, and the PRP is diluted with the PPP to prepare a PRP sample with platelet concentration of 300,000/mm^3 for the adenosine diphosphate (ADP)-induced aggregation test. There is also prepared a PRP sample with platelet concentration of 450,000/mm^3 for the collagen-induced aggregation test.
(§4) 0.6 ml of said PRP sample is added into 0.01 ml of a solution of a test compound of a predetermined concentration and the mixture is placed in a 37° C. thermostat for one minute. Then 0.07 ml of an ADP or collagen solution is added to the mixture. Transmittance of this mixture is determined and the change of transmittance is recorded by using the aggregometer at stirrer speed of 1,100 r.p.m. In this test, Auren Beronal buffer (pH 7.35) is used for the preparation of the ADP or collagen solution. ADP is adjusted to a concentration of 7.5×10^-5 M, and the collagen solution is prepared by triturating 100 mg of collagen with 5 ml of said buffer and the supernatant is used as collagen inducer. Adenosine and acetylsalicylic acid are used as controls for the ADP-induced aggregation test and the collagen-induced aggregation test, respectively. The platelet aggregation inhibitory effect is measured in terms of percent inhibition with respect to the aggregation rate of the controls. The aggregation rate is calculated from the following formula:
(§5) Aggregation rate=(c-a)/(b-a)×100
(§6) b: transmittance of PRP containing a test compound and an aggregation inducer
(§7) The inhibitory effect of the tested compounds on collagen-induced aggregation in rabbit platelets is shown in Table 1, and such effect on ADP-induced aggregation is shown in Table 2. The compounds tested are as follows.

rabbit platelet [3] = test: Collagen-induced aggregation in rabbit platelets (AG-II Aggregometer); assay type: cell-based; details: Oryctolagus cuniculus, Platelet, read-out: Inhibition effect on collagen induced aggregation in rabbit platelet; for inhibition at 100 µM (stock): 10^-4 mole; for inhibition at 10 µM (stock): 10^-5 mole; for inhibition at 1 µM (stock): 10^-6 mole
Description: as §2, §3, §4, §5, §6, §7

[4] = Acute toxicity test, oral administration to mice; assay type: in vivo; details: mouse, in vivo, Male mice
Description: The test compounds were administered orally to the mice and LD50 (mg/kg) of the compounds was determined.

[5] = Concentration in blood of male beagle dogs; assay type: in vivo; details: 30 mg/kg water suspension; for Concentration in blood: Beagle dog
Description: as §1

Row | Structure (SMILES) | concentration at 1 h ([1]; rat, plasma, 30 mg/kg) | concentration at 2 h ([1]; rat, plasma, 30 mg/kg, 2 hr.) | concentration at 4 h ([1]; rat, plasma, 30 mg/kg, 4 hr.) | concentration at 6 h ([1]; rat, plasma, 30 mg/kg) | concentration at 12 h ([1]; rat, plasma, 30 mg/kg) | inhibition at 100 µM (stock) (rabbit platelet [2]) | inhibition at 10 µM (stock) (rabbit platelet [2]) | inhibition at 1 µM (stock) (rabbit platelet [2]) | inhibition at 100 µM (stock) (rabbit platelet [3]) | inhibition at 10 µM (stock) (rabbit platelet [3]) | inhibition at 1 µM (stock) (rabbit platelet [3]) | LD50 [4] | concentration at 1 h ([5]; dog, plasma, 30 mg/kg, 1 hr.) | concentration at 6 h ([5]; dog, plasma, 30 mg/kg) | concentration at 8 h ([5]; dog, plasma, 30 mg/kg) | Concentration in blood ([1]; 2 hr.) | Concentration in blood ([1]; 4 hr.) | Concentration in blood ([5]; 2 hr.) | other results
1 | CCN(C(=O)CCCOc1ccc2[nH]c(=O)ccc2c1)c1ccccc1 [compound 20, 6-[3-(N-Ethylanilinocarbonyl)propoxy]carbostyril] | 950 ng/mL | 1370 ng/mL | 920 ng/mL | 460 ng/mL | 280 ng/mL | 82.5% | 31.7% | 13.5% | 91.3% | 76.3% | 43.2% | > 1000 mg/kg | 320 ng/mL | 80 ng/mL | 50 ng/mL | – | – | – | –
2 | CN(C(=O)CCCOc1cccc2c1CCC(=O)N2)C1CCCCC1 [compound 23, 5-[3-(N-Methyl-N-cyclohexylaminocarbonyl)propoxy]-3,4-dihydrocarbostyril] | 1530 ng/mL | 2240 ng/mL | 940 ng/mL | 540 ng/mL | 520 ng/mL | 73.6% | 26.1% | 8.7% | 76.5% | 58.7% | 13.5% | > 1000 mg/kg | 430 ng/mL | 140 ng/mL | 50 ng/mL | – | – | – | concentration at 8 h ([1]; rat, plasma, 30 mg/kg, 8 hr.): 390 ng/mL; concentration at 2 h ([5]; dog, plasma, 30 mg/kg, 2 hr.): 290 ng/mL; concentration at 4 h ([5]; dog, plasma, 30 mg/kg, 4 hr.): 210 ng/mL; concentration at 12 h ([5]; dog, plasma, 30 mg/kg, 12 hr.): 70 ng/mL
3 | CCOC(=O)CCCOc1ccc2c(c1)CCC(=O)N2 [compound 29, 6-(3-Ethoxycarbonylpropoxy)-3,4-dihydrocarbostyril, reference compound] | 10 ng/mL | – | – | – | – | 100% | – | 10% | – | 38% | 8% | > 1000 mg/kg | 10 ng/mL | – | – | 0 µg/mL | 0 µg/mL | 0 µg/mL | Concentration in blood ([5]; 4 hr.): 0 µg/mL
4 | CCOC(=O)CCCOc1ccc2[nH]c(=O)ccc2c1 [compound 34, 6-(3-Ethoxycarbonylpropoxy)carbostyril, reference compound] | 10 ng/mL | – | – | – | – | 100% | 90% | 25% | 100% | 86% | 18% | > 1000 mg/kg | – | – | – | 0 µg/mL | 0 µg/mL | 0 µg/mL | Concentration in blood ([5]; 1 hr.): 0 µg/mL
